Read-outs that look alike come from different tables or passages of the source.
Assays:
sugarcane borer larvae = experiment: leaf dip test, sugarcane borer larvae; assay type: in vivo; settings: Diatraea saccharalis, foliar, Bta 27 ppm, flubendiamide 2.15 ppm, mixture 27 ppm + 2.15 ppm, read-out: % Efficacy
Protocol: (§1) The following examples illustrate the synergy of Bacillus thuringiensis subsp. aizawai and flubendiamide when controlling diamondback moth, beet armyworm, soybean looper, corn earworm, and sugarcane borer. Xentari® was used as the source of Bacillus thuringiensis subsp. aizawai and Belt® was used as the source of flubendiamide. The present invention is not limited to the products or formulation types used herein. In each example below, the studies were conducted as follows.
(§2) For these tests, standardized laboratory leaf dip methods were used to inoculate plant material with treatment(s). Dry, treated leaves were placed into Petri dishes (100×25 mm) containing filter paper wetted with 500 μl of distilled H2O (“dH2O”). Each dish was then infested with between 5 and 10 larvae, dependent on species. Efficacy ratings were taken at specified intervals. Synergy ratings were calculated for each test.
(§3) % Cexp=A+B−(AB/100), where % Cexp is the expected efficacy and “in which A and B are the control levels given by the single [insecticides]. […] Adopting a conservative approach, Applicant determined synergy to be present at ratios of ≧1.15. […]

[1] = system: southwestern corn borer larvae; experiment: leaf dip test, southwestern corn borer larvae; assay type: in vivo; settings: foliar, Bta 2.7 ppm, flubendiamide 0.39 ppm, mixture 2.7 ppm + 0.39 ppm, read-out: % Efficacy
soybean looper larvae = experiment: leaf dip test, soybean looper larvae; assay type: in vivo, Chrysodeixis includens; settings: foliar, Bta 27 ppm, flubendiamide 3.9 ppm, mixture 27 ppm + 3.9 ppm, read-out: % Efficacy
Protocol: as §1, §2, §3

beet armyworm larvae = experiment: leaf dip test, beet armyworm larvae; assay type: in vivo; settings: Spodoptera exigua, foliar, Bta 2.7 ppm, flubendiamide 0.49 ppm, mixture 2.7 ppm + 0.49 ppm, read-out: % Efficacy
Protocol: as §1, §2, §3

corn earworm larvae = experiment: leaf dip test, corn earworm larvae; assay type: in vivo; settings: Helicoverpa zea, foliar, Bta 27 ppm, flubendiamide 0.975 ppm, mixture 27 ppm + 0.975 ppm, read-out: % Efficacy
Protocol: as §1, §2, §3

cabbage looper larvae = experiment: leaf dip test, cabbage looper larvae; assay type: in vivo; settings: Trichoplusia ni, foliar, Bta 2.7 ppm, flubendiamide 0.49 ppm, mixture 2.7 ppm + 0.49 ppm, read-out: % Efficacy
diamondback moth larvae = experiment: leaf dip test, diamondback moth larvae; assay type: in vivo; settings: Plutella xylostella, foliar, Bta 2.7 ppm, flubendiamide 0.215 ppm, mixture 2.7 ppm + 0.215 ppm, read-out: % Efficacy
Protocol: as §1
For these tests, standardized laboratory leaf dip methods were used to inoculate plant material with treatment(s). Dry, treated leaves were placed into Petri dishes (100×25 mm) containing filter paper wetted with 500 μl of distilled H2O (“dH2O”). […] Synergy ratings were calculated for each test. […]
as §3
In order to determine synergy, rates below normal field rate ranges must be used. If normal field rate ranges are used, all of the larvae would die (combining a lethal or near lethal dose of Bacillus thuringiensis subsp. aizawai with a lethal dose of flubendiamide would most likely lead to larvae death) in every treatment and synergy would not be able to be determined. […]

## Cc1cc(C(F)(C(F)(F)F)C(F)(F)F)ccc1NC(=O)c1cccc(I)c1C(=O)NC(C)(C)CS(C)(=O)=O [Flubendiamide, 3-iodo-N′-(2-mesyl-1,1-dimethylethyl)-N-{4-[1,2,2,2-tetrafluoro-1-(trifluoromethyl)ethyl]-o-tolyl}phthalamide]
Sugarcane borer larvae; 24 h after treatment
  Emax at 2.15 ppm: 44%
Sugarcane borer larvae; 48 h after treatment
  Emax at 2.15 ppm: 68%
[1]; 24 h after treatment
  Emax at 0.39 ppm: 40%
[1]; 48 h after treatment
  Emax at 0.39 ppm: 49%
Soybean looper larvae; 24 h after treatment
  Emax at 3.9 ppm: 3%
Soybean looper larvae; 48 h after treatment
  Emax at 3.9 ppm: 20%
Beet armyworm larvae; 24 h after treatment
  Emax at 0.49 ppm: 12%
Beet armyworm larvae; 48 h after treatment
  Emax at 0.49 ppm: 26%
Corn earworm larvae; 24 h after treatment
  Emax at 0.975 ppm: 16%
Corn earworm larvae; 48 h after treatment
  Emax at 0.975 ppm: 29%
Cabbage looper larvae; 24 h after treatment
  Emax at 0.49 ppm: 4%
Cabbage looper larvae; 48 h after treatment
  Emax at 0.49 ppm: 21%
Diamondback moth larvae; 24 h after treatment
  Emax at 0.215 ppm: 11%
Diamondback moth larvae; 48 h after treatment
  Emax at 0.215 ppm: 25%

— patent US20170311605A1, “SYNERGISTIC BACILLUS THURINGIENSIS SUBSP. AIZAWAI AND FLUBENDIAMIDE MIXTURES FOR DIAMONDBACK MOTH, BEET ARMYWORM, SOYBEAN LOOPER, CORN EARWORM, AND SUGARCANE BORER CONTROL” (Valent BioSciences LLC, priority 2016, published 2017)
